The structures appear in SMILES notation. “And” between values parts separate entries of the source, which are not always exact repeats. Equal entries are not always repeated.

One assay deals with biosynthesis of hepatic cholesterol (hepatic epoxysqualene cyclase). Description: Influence on the biosynthesis of hepatic cholesterol in vivo: incorporation of radioactivity in the C27 sterols. Conditions: 50 mg base/kg, oral (gavage), male OF1 mice; relative to control (vehicle) group; 14C-mevalonolactone at 1 h, sacrifice at 2 h. As for the experimental part: The influence of the molecules on hepatic cholesterogenesis in vivo is tested on male OF1 mice. The animals are conditioned in reverse cycle two weeks before administration of the product.
At T=0 on the day of the experiment, the animals (3 to 6 mice/group) receive by oral administration (gavage) a suspension of the test product in the vehicle (3% gum arabic in water).
At T=1 h, the radioactive precursor (R,S-2-^14 C-mevalonolactone) in a 0.9% aqueous solution of NaCl is injected intraperitoneally [2.5 or 5 μCi/mouse (i.e. 9.25×10^4 Bq or 1.85×10^5 Bq respectively)].
At T=2 h, the animals are sacrificed by dislocation of the cervix; the livers are removed, rinsed, weighed and frozen in liquid nitrogen before being stored at -20° C.
During the conditioning period and on the day of the experiment, the animals have free access to food and drinking water.
The administration of the test product and the injection of the radioactive precursor take place in the middle of the dark period.
After thawing, the whole liver (or part of the liver) is homogenized in water at 0°-4° C. An aliquot of the homogenate is then saponified in alcoholic potassium hydroxide for 90 minutes at 80° C. The unsaponifiable lipids are then extracted with petroleum ether. The solvent is evaporated off to dryness under a stream of nitrogen and the dry residue is redissolved in a chloroform/methanol mixture (2/1). The products contained in the extract are then separated by chromatography on a thin layer of silica after migration in the system hexane/ethyl acetate (80/20).
The deposition of a standard mixture containing non-radioactive cholesterol, lanosterol, monoepoxysqualene, diepoxysqualene and squalene, together with ^14 C-cholesterol, makes it possible to determine the Rf of the compounds which serve as a reference for analysis of the radioactive profile of the unsaponifiable lipids.
The distribution of the radioactivity is analyzed with an automatic linear analyzer. The relative percentage of radioactivity in the C^27 -sterol peak of the control (vehicle) group represents 100% incorporation. Calculation of the influence is based on the ratio of the percentage of radioactivity in the C^27 -sterol peak of the treated group to that of the control group.
For the molecule `C=CCN1CC=C2C(C)(C)[C@@H](NC(=O)C(F)(F)F)CC[C@]2(C)C1` (relative stereo) [Example 1, N-Trifluoroacetyl-1,2,3,5,6,7,8,8a-octahydro-2-(2-propen-1-yl)-5,5,8a-trimethyl-(6β,8aβ)-6-isoquinolineamine], the “Percentage influence on the incorporation of radioactivity in the C27 sterols” value (“Percentage influence” below) is given as -37%.
On the same count and under the same terms, the result for `C=CCN1CC=C2C(C)(C)[C@@H](NC(C)=O)CC[C@]2(C)C1` (relative stereo) [Example 16, N-Acetyl-1,2,3,5,6,7,8,8a-octahydro-2-(2-propen-1-yl)-5,5,8a-trimethyl-(6β,8aβ)-6-isoquinolineamine 4-methylbenzenesulfonate] reads -14%; that for `C=CCN1CC=C2C(C)(C)[C@@H](N(C)C)CC[C@]2(C)C1` (relative stereo) [Example 20, N,N-Dimethyl-1,2,3,5,6,7,8,8a-octahydro-2-(2-propen-1-yl)-5,5,8a-trimethyl-(6β,8aβ)-6-isoquinolineamine (E)-2-butenedioate], -21%.
As to `CC1(C)C2=CCN(CC3CO3)C[C@@]2(C)CC[C@@H]1NC(=O)C(F)(F)F` (stereo partly drawn) [Example 5, N-Trifluoroacetyl-1,2,3,5,6,7,8,8a-octahydro-2-[1-(2,3-epoxypropyl)]-5,5,8a-trimethyl-(6β,8aβ)-6-isoquinolineamine], the “Percentage influence” value is -32%.

The assay is the same for the next values; noted with them: 100 mg base/kg, oral (gavage), male OF1 mice; relative to control (vehicle) group; 14C-mevalonolactone at 1 h, sacrifice at 2 h.
As to `CC1(C)C2=CCN(CC(O)CO)C[C@@]2(C)CC[C@@H]1NC(=O)C(F)(F)F` (stereo partly drawn) [Example 6, N-Trifluoroacetyl-1,2,3,5,6,7,8,8a-octahydro-2-[1-(2,3-dihydroxypropyl)]-5,5,8a-trimethyl-(6β,8aβ)-6-isoquinolineamine E-2-butenedioate], the “Percentage influence” value was -74% and -78%.

Another assay concerns the target T1, epoxysqualene cyclase of the hepatic microsomes (Rattus norvegicus, UniProt P48450).
T1 construct: Rat hepatic microsomes are used as the enzyme source; from tissue; host or cells: liver microsomes of male Wistar rats
T1 sequence (P48450 1-733): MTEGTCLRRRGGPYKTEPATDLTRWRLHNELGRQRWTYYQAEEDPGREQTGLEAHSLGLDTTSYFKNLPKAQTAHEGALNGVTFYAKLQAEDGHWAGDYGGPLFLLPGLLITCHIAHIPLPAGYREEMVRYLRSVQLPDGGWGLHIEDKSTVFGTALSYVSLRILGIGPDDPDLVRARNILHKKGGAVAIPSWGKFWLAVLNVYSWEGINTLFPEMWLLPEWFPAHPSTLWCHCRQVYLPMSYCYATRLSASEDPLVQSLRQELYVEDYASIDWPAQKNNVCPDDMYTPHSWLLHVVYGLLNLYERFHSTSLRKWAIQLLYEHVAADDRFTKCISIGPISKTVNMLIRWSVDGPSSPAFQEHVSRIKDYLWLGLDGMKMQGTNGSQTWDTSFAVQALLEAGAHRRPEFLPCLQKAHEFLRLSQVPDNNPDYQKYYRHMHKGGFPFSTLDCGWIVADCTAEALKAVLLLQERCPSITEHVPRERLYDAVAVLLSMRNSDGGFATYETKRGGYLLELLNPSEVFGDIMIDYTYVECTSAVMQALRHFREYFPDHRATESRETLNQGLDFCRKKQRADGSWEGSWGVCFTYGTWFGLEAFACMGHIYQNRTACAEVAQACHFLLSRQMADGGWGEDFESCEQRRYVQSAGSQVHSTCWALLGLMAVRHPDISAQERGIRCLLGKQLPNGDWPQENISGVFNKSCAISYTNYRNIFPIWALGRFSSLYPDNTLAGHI
The experiment in a line: Epoxysqualene cyclase inhibition: lanosterol formed from R,S-2,3-oxidosqualene by rat hepatic microsomes. The class given is biochemical, male Wistar rats.
Conditions: not given
How it is done: The method consists in measuring the lanosterol formed from the R,S-2,3-oxidosqualene by the microsomal enzyme. The enzyme is prepared according to the method described by Ness G. C. (Ness G. C. et al., Biochem. J. (1986), 233,167-172).
Method of Measuring the Epoxysqualene Cyclase Activity
Rat hepatic microsomes are used as the enzyme source. The method consists in measuring the lanosterol formed from the R,S-2,3-oxidosqualene. The R,S-2,3-oxidosqualene, the test products and Tween®80, in the form of organic solutions (2-propanone or sulfinylbismethane) (25 μl ), are placed in test tubes and 400 μl of potassium phosphate buffer (0.1M, pH=7.4) are then added. The reaction is initiated by the addition of 100 μl of microsomes. For a final reaction volume of 525 μl , the mixture contains 150 μM of R,S-2,3-oxidosqualene, 0.1% of Tween®80 (to solubilize the R,S-2,3-oxidosqualene) and 250 μg of microsomal proteins. The reaction time is 60 minutes at 37° C. The reaction is stopped by the addition of 300 μl of methanolic potassium hydroxide (7%) and 20 μg of stigmasterol as an internal standard. After saponification at 80° C. for 30 minutes and stirring with a rotary stirrer, the sterols are extracted with 2 ml of hexane.
The lanosterol formed is separated from the R,S-2,3-oxidosqualene, the membrane cholesterol and the stigmasterol by gas chromatography after conversion to trimethylsilyl ethers. The derivatization of the sterols is carried out at 60° C. for 30 minutes after the addition of 25 μl of pyridine and 75 μl of the trimethylsilyl ester of 2,2,2-trifluoro-N-trimethylsilylethanimidic acid containing 1% of trimethylchlorosilane ethers.
After evaporation, the trimethylsilyl ethers are redissolved in 100 μl of hexane. An aliquot of this solution (2 μl) is chromatographed in the gas phase on an OV1 capillary column (0.32 mm, 25 m) under the following conditions: injector temperature=270° C., oven temperature=260° C., detector temperature=300° C., the carrier gas being nitrogen at a pressure of 7.10^4 Pa.
The potency of the molecules tested is expressed as the percentage inhibition of the amount of lanosterol formed for a concentration of 25.10^-6 mol of test product per liter. The results obtained with a number of compounds according to the invention are collated in Table II.
With `C=CCN1CC=C2C(C)(C)[C@@H](NC)CC[C@]2(C)C1` (relative stereo) [Example 13, N-Methyl-1,2,3,5,6,7,8,8a-octahydro-2-(2-propen-1-yl)-5,5,8a-trimethyl-(6β,8aβ)-6-isoquinolineamine ethanedioate], the “Percentage inhibition of the amount of lanosterol formed” value (from here on “Percentage inhibition”) was 63%.

The same assay, now with this note: 25.10^-6 mol of test product per liter; 60 minutes at 37° C., pH=7.4; rat hepatic microsomes.
Turning to `CCCCCCCCCCCCN1CC=C2C(C)(C)[C@@H](NC)CC[C@]2(C)C1` (relative stereo) [Example 12, N-Methyl-1,2,3,5,6,7,8,8a-octahydro-2-dodecyl-5,5,8a-trimethyl-(6β,8aβ)-6-isoquinolineamine ethanedioate], the “Percentage inhibition” value was determined as 65%.
Turning to `CCCCCCCCCCCCN1CC=C2C(C)(C)[C@@H](N)CC[C@]2(C)C1` (relative stereo) [Example 14, 1,2,3,5,6,7,8,8a-Octahydro-2-dodecyl-5,5,8a-trimethyl-(6β,8aβ)-6-isoquinolineamine E-2-butenedioate], the “Percentage inhibition” value is on record as 29%.
The same measure, in the same setting: the result for `CCCCCCCCCCCCN1CC=C2C(C)(C)[C@@H](N(C)C)CC[C@]2(C)C1` (relative stereo) [Example 17, N,N-Dimethyl-1,2,3,5,6,7,8,8a-octahydro-2-dodecyl-5,5,8a-trimethyl-(6β,8aβ)-6-isoquinolineamine (E)-2-butenedioate] reads 100%.
On the same count and under the same terms, the result for `CCCCCCCCCCCCN1CC=C2C(C)(C)[C@H](N(C)C)CC[C@]2(C)C1` (relative stereo) [Example 18, N,N-Dimethyl-1,2,3,5,6,7,8,8a-octahydro-2-dodecyl-5,5,8a-trimethyl-(6α,8aβ)-6-isoquinolineamine ethanedioate] reads 66%; that for `C=CCN1CC=C2C(C)(C)[C@@H](N(C)C)CC[C@]2(C)C1` (relative stereo) [Example 20, N,N-Dimethyl-1,2,3,5,6,7,8,8a-octahydro-2-(2-propen-1-yl)-5,5,8a-trimethyl-(6β,8aβ)-6-isoquinolineamine (E)-2-butenedioate], 89%; that for `CCCN1CC=C2C(C)(C)[C@@H](N(C)C)CC[C@]2(C)C1` (relative stereo) [Example 21, N,N-Dimethyl-1,2,3,5,6,7,8,8a-octahydro-2-propyl-5,5,8a-trimethyl-(6β,8aβ)-6-isoquinolineamine ethanedioate], 100%.
For `CN(C)[C@H]1CC[C@]2(C)CN(CC=Cc3ccccc3)CC=C2C1(C)C` (relative stereo) [Example 23, N,N-Dimethyl-1,2,3,5,6,7,8,8a-octahydro-2-(3-phenyl-2-propen-1-yl)-5,5,8a-trimethyl-(6β,8aβ)-6-isoquinolineamine 4-methylbenzenesulfonate], the “Percentage inhibition” value came to 98%.
The same measure, in the same setting: as for `CN(C)[C@H]1CC[C@]2(C)CN(CC=C(c3ccccc3)c3ccccc3)CC=C2C1(C)C` (relative stereo) [Example 24, N,N-Dimethyl-1,2,3,5,6,7,8,8a-octahydro-2-(3,3-diphenyl-2-propen-1-yl)-5,5,8a-trimethyl-(6β,8aβ)-6isoquinolineamine ethanedioate], the figure is 92%; as for `CC1(C)C2=CCN(CC(O)CO)C[C@@]2(C)CC[C@@H]1NC(=O)C(F)(F)F` (stereo partly drawn) [Example 6, N-Trifluoroacetyl-1,2,3,5,6,7,8,8a-octahydro-2-[1-(2,3-dihydroxypropyl)]-5,5,8a-trimethyl-(6β,8aβ)-6-isoquinolineamine E-2-butenedioate], 62%; as for `CN(C)[C@H]1CC[C@]2(C)CN(CC(O)CO)CC=C2C1(C)C` (stereo partly drawn) [Example 22, N,N-Dimethyl-1,2,3,5,6,7,8,8a-octahydro-2-[1-(2,3-dihydroxypropyl)]-5,5,8a-trimethyl-(6β,8aβ)-6-isoquinolineamine], 64%.
For the molecule `CC(Cc1ccc(C(C)C)cc1)CN1CC=C2C(C)(C)[C@@H](N(C)C)CC[C@]2(C)C1` (stereo partly drawn) [Example 25, N,N-Dimethyl-1,2,3,5,6,7,8,8a-octahydro-2-[1-[2-methyl-3-[4-(1-methylethyl)phenyl]propyl]]-5,5,8a-trimethyl-(6β,8aβ)-6-isoquinolineamine (E)-2-butenedioate], the “Percentage inhibition” value was found to be 98%.

The record behind these values is US5580881A, “1,2,3,5,6,7,8,8a-Octahydro-5,5,8a-trimethyl- (8aβ)-6-isoquinolineamine derivatives, preparation method therefor and therapeutical use thereof” (Fournier Industrie Et Sante, priority 1992, dated 1996).
